Laboratory results: US20150290306A1, “COMPOSITIONS AND METHODS FOR DIAGNOSIS AND TREATMENT OF MALIGNANT GLIOMAS” (priority 2012, published 2015)

Tested on: PBMCs
Test: PBMC culture with candidate peptides for 14 days, IFN-γ and IL-5 in supernatant by ELISA
Format: cell-based, human
Details: for IFN-γ/IL-5 ratio (geometric mean): peptide 10 μg/mL
Source text: Measurement of antigen-specific T cell responses in the peripheral blood in humans differs depending on whether responses are high affinity interactions with foreign (viral) epitopes or lower affinity interactions involving recognition of self-antigens. […] Given that T cell responses directed against MAGE and IL-13Rα2 antigens also involve T cells with low affinity to these self-antigens, antigen-specific responses were quantified based on cytokine secretion, as recently described in a phase I study of patients with MS (Viglietta V, et al: Neurology 2008, 71(12):917-924). Cytokine production was quantified by ELISA, defining a positive T cell response for each patient as the amounts of IFN-γ or IL-5 that were >50 pg/mL and two standard deviations above the mean cytokine levels secreted after stimulation of cells from that patient with negative control MBP peptide.
Twenty-five mL of blood from patients or healthy subjects was obtained under an IRB-approved protocol. All samples of blood from patients were taken at the time of surgery. […] All tumor-bearing patients received similar doses of steroids and anti-epileptic medications at the time of tumor debulking surgery prior to obtaining peripheral blood for these studies. T cell responses in patients with meningiomas controlled for influences of steroids on antigen responsiveness and cytokine balance. Tumor tissue was independently confirmed in all cases by formal pathological analysis. PBMCs were purified from heparinized blood by density gradient centrifugation using Ficoll-Hypaque (GE Healthcare Biosciences), and cells were then washed with PBS and viable cells quantified by trypan-blue staining.
Freshly isolated PBMCs were plated at 2×10^5 cells/well in 200 μl of serum-free X-VIVO15 (X15) media (Lonza) in 96-well round-bottom cell culture plates. Candidate peptides, in addition to a negative control peptide derived from MBP were added at a concentration of 10 μg/mL and anti-CD3 mAb was added at a concentration of 1 μg/mL. Six T cell cultures were established for each condition in each subject, and 100 IU/ml of IL-2 was added on the following day. Plates were incubated at 37° C. and 5% CO2 for 14 days, with media changed as needed, and the supernatant was harvested to evaluate T cell responses (cytokines) induced by each condition using ELISA. In a limited number (n=3) of patients, cytokine production was assessed after both 7 and 14 days. […] An IFN-γ ELISPOT assay was performed as previously described (Lv H, Havari E, et al: J Clin Invest, 121(4):1561-1573).
To detect T helper cell responses directed against the candidate peptides, IFN-γ and IL-5 were measured by ELISA using commercially available kits supplied by BD bioscience. IFN-γ was used as a prototypic Th1 cytokine and IL-5 was chosen as a prototypic cytokine released by Th2 cells because unlike IL-4 there would be no potential consumption by antigen-specific T cells in the culture conditions (Kourilsky P, Truffa-Bachi P: Trends Immunol 2001, 22(9):502-509).

Sequence	positive wells among 6 primary T cell responses (IFN-γ or IL-5 ELISA) (Healthy Subject 1)	positive wells among 6 primary T cell responses (IFN-γ or IL-5 ELISA) (Healthy Subject 4)	positive wells among 6 primary T cell responses (IFN-γ or IL-5 ELISA) (Healthy Subject 5)	positive wells among 6 primary T cell responses (IFN-γ or IL-5 ELISA) (Meningioma 5)	positive wells among 6 primary T cell responses (IFN-γ or IL-5 ELISA) (Meningioma 6)	positive wells among 6 primary T cell responses (IFN-γ or IL-5 ELISA) (Primary GBM 2)	positive wells among 6 primary T cell responses (IFN-γ or IL-5 ELISA) (Primary GBM 3)	positive wells among 6 primary T cell responses (IFN-γ or IL-5 ELISA) (Primary GBM 4)	positive wells among 6 primary T cell responses (IFN-γ or IL-5 ELISA) (Primary GBM 5)	positive wells among 6 primary T cell responses (IFN-γ or IL-5 ELISA) (Primary GBM 6)	positive wells among 6 primary T cell responses (IFN-γ or IL-5 ELISA) (Primary GBM 7)	positive wells among 6 primary T cell responses (IFN-γ or IL-5 ELISA) (Primary GBM 8)	positive wells among 6 primary T cell responses (IFN-γ or IL-5 ELISA) (Recurrent GBM 1)	positive wells among 6 primary T cell responses (IFN-γ or IL-5 ELISA) (Recurrent GBM 3)	positive wells among 6 primary T cell responses (IFN-γ or IL-5 ELISA) (Recurrent GBM 5)	IFN-γ/IL-5 ratio (geometric mean) (healthy subjects)	IFN-γ/IL-5 ratio (geometric mean) (patients with primary GBMs)	IFN-γ/IL-5 ratio (geometric mean) (patients with recurrent GBMs)	positive wells among 6 primary T cell responses (IFN-γ or IL-5 ELISA) (Healthy Subject 6)	positive wells among 6 primary T cell responses (IFN-γ or IL-5 ELISA) (Primary GBM 1)	also measured
KVDELAHFLLRKYRAK [MAGE-A3112-127]	+++ (+++/++++ cell=3-4 positive wells)	++ (+/++ cell=1-2 positive wells)	+ (+/++ cell=1-2 positive wells)	+++ (+++/++++ cell=3-4 positive wells)	+ (+/++ cell=1-2 positive wells)	++ (+/++ cell=1-2 positive wells)	++ (+/++ cell=1-2 positive wells)	+ (+/++ cell=1-2 positive wells)	+++++ (+++++/++++++ cell=5-6 positive wells)	++ (+/++ cell=1-2 positive wells)	+++ (+++/++++ cell=3-4 positive wells)	++++ (+++/++++ cell=3-4 positive wells)	+ (+/++ cell=1-2 positive wells)	++ (+/++ cell=1-2 positive wells)	+ (+/++ cell=1-2 positive wells)	4.9	0.2	0.04	–	–	positive wells among 6 primary T cell responses (IFN-γ or IL-5 ELISA) (Healthy Subject 3): ++ (+/++ cell=1-2 positive wells); positive wells among 6 primary T cell responses (IFN-γ or IL-5 ELISA) (Recurrent GBM 2): + (+/++ cell=1-2 positive wells); positive wells among 6 primary T cell responses (IFN-γ or IL-5 ELISA) (Recurrent GBM 4): ++ (+/++ cell=1-2 positive wells)
LLRFWLPFGFILILV [IL-13Ra2341-355]	–	+ (+/++ cell=1-2 positive wells)	++++ (+++/++++ cell=3-4 positive wells)	++ (+/++ cell=1-2 positive wells)	+ (+/++ cell=1-2 positive wells)	++ (+/++ cell=1-2 positive wells)	+++++ (+++++/++++++ cell=5-6 positive wells)	–	++ (+/++ cell=1-2 positive wells)	++ (+/++ cell=1-2 positive wells)	+++ (+++/++++ cell=3-4 positive wells)	++++ (+++/++++ cell=3-4 positive wells)	++ (+/++ cell=1-2 positive wells)	–	–	1.6	0.3	0.02	+ (+/++ cell=1-2 positive wells)	+ (+/++ cell=1-2 positive wells)	positive wells among 6 primary T cell responses (IFN-γ or IL-5 ELISA) (Healthy Subject 2): + (+/++ cell=1-2 positive wells)
LRKYRAKELVTKAEML [MAGE-A3121-136]	+++ (+++/++++ cell=3-4 positive wells)	+ (+/++ cell=1-2 positive wells)	+ (+/++ cell=1-2 positive wells)	–	+ (+/++ cell=1-2 positive wells)	++ (+/++ cell=1-2 positive wells)	++++ (+++/++++ cell=3-4 positive wells)	++ (+/++ cell=1-2 positive wells)	++++ (+++/++++ cell=3-4 positive wells)	++ (+/++ cell=1-2 positive wells)	++++ (+++/++++ cell=3-4 positive wells)	++ (+/++ cell=1-2 positive wells)	++ (+/++ cell=1-2 positive wells)	+ (+/++ cell=1-2 positive wells)	+ (+/++ cell=1-2 positive wells)	8.1	0.1	0.06	+ (+/++ cell=1-2 positive wells)	++ (+/++ cell=1-2 positive wells)	positive wells among 6 primary T cell responses (IFN-γ or IL-5 ELISA) (Healthy Subject 2): + (+/++ cell=1-2 positive wells); positive wells among 6 primary T cell responses (IFN-γ or IL-5 ELISA) (Healthy Subject 3): +++ (+++/++++ cell=3-4 positive wells); positive wells among 6 primary T cell responses (IFN-γ or IL-5 ELISA) (Meningioma 1): + (+/++ cell=1-2 positive wells); positive wells among 6 primary T cell responses (IFN-γ or IL-5 ELISA) (Meningioma 2): +++ (+++/++++ cell=3-4 positive wells); positive wells among 6 primary T cell responses (IFN-γ or IL-5 ELISA) (Recurrent GBM 4): + (+/++ cell=1-2 positive wells)
ILILVIFVTGLLLRK [IL-13Ra2351-365]	+ (+/++ cell=1-2 positive wells)	+++++ (+++++/++++++ cell=5-6 positive wells)	++ (+/++ cell=1-2 positive wells)	++ (+/++ cell=1-2 positive wells)	++++++ (+++++/++++++ cell=5-6 positive wells)	++ (+/++ cell=1-2 positive wells)	++ (+/++ cell=1-2 positive wells)	+++ (+++/++++ cell=3-4 positive wells)	+ (+/++ cell=1-2 positive wells)	–	+++ (+++/++++ cell=3-4 positive wells)	+++++ (+++++/++++++ cell=5-6 positive wells)	++ (+/++ cell=1-2 positive wells)	+ (+/++ cell=1-2 positive wells)	++ (+/++ cell=1-2 positive wells)	2.0	0.3	0.05	++ (+/++ cell=1-2 positive wells)	+++ (+++/++++ cell=3-4 positive wells)	positive wells among 6 primary T cell responses (IFN-γ or IL-5 ELISA) (Meningioma 3): + (+/++ cell=1-2 positive wells); IFN-γ/IL-5 ratio, recurrent GBM patients compared to primary GBM patients (P<0.05): significantly lower
